From patent US7189701B1, “Tetrapeptide stimulating functional activity of neurons pharmacological agent based thereon and method of use thereof” (Sankt-Petersburgskaya Obschestvennaya Organizatsiya …, priority 1999, dated 2007)
Residues, ends and D or L forms follow the SMILES beside them.

Columns and labels:
white unbred rats = assay: Subacute toxicity, 90 days intramuscular; format: in vivo; details: intramuscular daily for 90 days, 1 μg/kg, 0.3 mg/kg, 3 mg/kg
Procedure: Subacute toxicity of L-Ala-L-Glu-L-Asp-L-Pro (SEQ ID NO:1) tetrapeptide was studied on 60 white unbred rats weighing 150 to 250 g. The experimental animals were administered the preparation intramuscularly once a day, daily for 90 days in doses 1 μg/kg, 0.3 mg/kg, 3 mg/kg in 0.5 ml of saline. The control animals were administered the similar amount of saline.
Within the entire period of study the animals were under daily supervision. Animals' behaviour, food and water consumption, the state of their hair integument and mucous membranes were registered. The animals were weighed once a week. Prior to and on the 30th, 60th and 90th days of the drug administration, the morphologic composition and properties of the peripheral blood in the animals were examined. Upon the study completion, biochemical and coagulologic blood indices were explored.

rats [1] = assay: Chronic toxicity, 6 months intramuscular; format: in vivo
Procedure: Chronic toxicity of L-Ala-L-Glu-L-Asp-L-Pro (SEQ ID NO:1) tetrapeptide obtained by the claimed method was investigated by means of a long-term administration thereof to rats weighing 150–250 g. The animals were subject to daily intramuscular administration of the drug in doses 1 μg/kg, 0.1 mg/kg, 1 mg/kg in 0.5 ml of saline for 6 months. Animals' behaviour, food and water consumption, the state of hair integument and mucous membranes were registered. The animals were weighed daily for the first 3 months of the experiment and then—once a month. Haematological and biochemical investigations were conducted in 3 months after the onset of the drug administration and on the experiment completion. Functions of the cardiovascular system, liver, pancreas, kidneys and adrenal glands were assessed. After the treatment completion some animals were subject to pathomorphologic examination with the purpose to estimate the state of different sections of the brain and bone marrow, heart, aorta, lungs, liver, kidneys, endocrine and immune organs.

rats [2] = assay: Toxic effects of neurotropic agents (apomorphine, haloperidol, nicotine, caffeine), spontaneous motional activity; format: in vivo
Procedure: Investigated was the action of L-Ala-L-Glu-L-Asp-L-Pro tetrapeptide on the toxic effects of neurotropic agents of various pharmacological groups.
In an hour after an intramuscular injection of saline (control) or L-Ala-L-Glu-L-Asp-L-Pro tetrapeptide (5 μg/kg) the rats were intraperitoneally administered toxic doses of different neuropharmacological agents (apomorphine, haloperidol, nicotine and caffeine). Thereby, the parameters of vertical (anxiety) and horizontal (locomotor activity) spontaneous motional activity were registered.

[3] = tested on: patients with remote complications of craniocerebral injury; assay: Clinical trial in patients with remote complications of craniocerebral injury (proof test, EEG α-index, subjective indices); format: in vivo, human
Procedure: The trial was conducted on 35 patients with remote complications of craniocerebral injury. They were divided into 3 groups: a control one (10 patients—standard treatment), a group under study (15 patients—standard treatment+1 μg of L-Ala-L-Glu-L-Asp-L-Pro tetrapeptide intramuscularly, daily for 10 days) and a comparison group (10 patients—standard treatment+Cerebrolysin). Remoteness of the suffered craniocerebral injury in the patients constituted 1 to 10 years. Decompensation of the posttraumatic process occurred in all the patients and was manifested in liquorodynamic disorder, neurocirculatory dystonia, cerebrofocal and psychopathologic syndromes.
Effect of the treatment with L-Ala-L-Glu-L-Asp-L-Pro tetrapeptide on the patients' attention was assessed by the proof test before and after the treatment. Significant increase in the number of reviewed symbols and decreased number of mistakes was noted, which indicated enhanced attention and raised stability of attention promoted by the tetrapeptide action (Table 5).
To assess the influence of L-Ala-L-Glu-L-Asp-L-Pro tetrapeptide on the cerebral bioelectric activity, a visual EEG (electroencephalography) test was carried out with its distribution on types and calculation of α-index before and after the treatment. EEG test was selectively performed in the patients from different groups showing most notable signs of disorder.
Before the treatment patients pathologic (III, IV and V) types of EEG prevailed in all the groups. The III-rd EEG type was characterised by the presence of so-called “non-dominant” curve, alongside with a low amplitude rate (no higher than 30–35 μV), irregular or even absent α-activity. The IV-th EEG type was marked by an extremely emphasised rhythm regularity and blurred zonal differences. The V-th EEG type was represented with an irregular slow activity (amplitude exceeding 35 μV), sharp waves and paroxysmal discharges.

cerebral cortex of rats = assay: Intensity of lipid peroxide oxidation reactions and protein peroxidation in the cerebral cortex; format: in vivo; details: 1 μg intraperitoneally daily for 5 days
Procedure: The intensity of lipid peroxide oxidation (LPO) was assessed by the content of initial LPO products—diene conjugates and end products—Schiff bases. The degree of protein peroxidation was estimated by the content of carbonyl-derived amino acids in proteins after their interaction with 2,4-dinitrophenylhydrazine.
The study was conducted on 20 white unbred rats. 1 μg of the tetrapeptide was administered to the animals intraperitoneally daily for 5 days.
Moreover, the tetrapeptide application inhibited protein peroxidation as well as LPO (Table 1).

[4] = tested on: mice with compressed fibular nerve; assay: Regeneration of the compressed peripheral (fibular) nerve, electrophysiological tests; format: in vivo; details: 10 μg/kg i.p. daily for 8 days
Procedure: The study was accomplished on 22 white unbred male mice weighing 25 to 30 g (7 experimental and 15 control animals).
At the 1st stage of the study, the mice were chronically operated on to compress the fibular nerve. The fibular nerve (n. peroneus communus) in the Nembutal-narcotised mice (60 mg/kg, intraperitoneally) was compressed at a distance of 8 to 9 mm from the innervated muscle—long digital extensor (m. extensor digitorum longus—EDL). The animals were operated on the left hind leg, whilst the corresponding nerve and muscle of the right leg were intact and used further as an intact control.
Afterwards, since the 3rd day after the nerve compression, the mice were intraperitoneally injected with L-Ala-L-Glu-L-Asp-L-Pro tetrapeptide in dose 10 μg/kg, daily for 8 days. The control mice were treated with an equivalent amount of saline.
On the 11th day after the nerve compression surgery (and within 24 hours after the last tetrapeptide injection), the Nembutal-narcotised mice (60 mg/kg) were subject in vivo to electrophysiological tests for different functional parameters of the already germinated nerve and reinnervated skeletal muscular fibres (EDL).

[5] = 5 μg/kg intramuscular 1 hour before toxic dose of caffeine i.p.
[6] = after treatment, added to conventional treatment

SMILES: C[C@H](N)C(=O)N[C@@H](CCC(=O)O)C(=O)N[C@@H](CC(=O)O)C(=O)N1CCC[C@H]1C(=O)O [L-Ala-L-Glu-L-Asp-L-Pro tetrapeptide, L-Alanyl-L-Glutamyl-L-Aspartyl-L-Proline] (H-AEDP-OH)
- side effects, subacute toxicity (white unbred rats): absence of any side effects
- side effects, chronic toxicity (rats [1]; intramuscular daily for 6 months, 1 μg/kg, 0.1 mg/kg, 1 mg/kg): absence of any side effects
- pathologic alterations (general state, peripheral blood indices, intrinsic organs, cardiovascular and respiratory systems, liver and kidney functions) (rats [1]; prolonged intramuscular administration to rats): no pathologic alterations
- effect on apomorphine toxic effects (anxiety, locomotor activity) (rats [2]; 5 μg/kg intramuscular 1 hour before toxic dose of apomorphine i.p.): diminished anxiety and locomotor activity
- effect on caffeine-induced anxiety (rats [2]; [5]): lowered caffeine-induced anxiety
- effect on locomotor activity after caffeine (rats [2]; [5]): did not affect locomotor activity
- effect on haloperidol toxic effects (anxiety, locomotor activity) (rats [2]; 5 μg/kg intramuscular 1 hour before toxic dose of haloperidol i.p.): increased anxiety and locomotor activity
- effect on nicotine toxic effects (anxiety) (rats [2]; 5 μg/kg intramuscular 1 hour before toxic dose of nicotine i.p.): decreased the influence of nicotine on the animals' anxiety
- Number of mistakes (proof test) [3, 6]: 6.3 ± 1.1
- Reviewed symbols (proof test) [3, 6]: 2519.6 ± 105.3
- α-index (EEG) [3, 6]: 47.9 ± 3.1
- cases with improvement of subjective indices (memory, mental agility, headaches, emotional evenness, will activity, recovery after a night repose) ([3]; before vs after treatment, 1 μg intramuscularly daily for 10 days): 71%
- Degree of protein peroxidation (cerebral cortex of rats): 4.81 ± 0.09 μmole/mg of protein
- Diene conjugates (cerebral cortex of rats): 29.67 ± 1.93 nmole/g of the tissue
- Schiff bases (cerebral cortex of rats): 245.2 ± 23.9 IU/g of the tissue
- improvement of the electric threshold of the regenerating nerve ([4]; 11th day after nerve compression): 30–50%
- acetyl choline muscular contraction rate ([4]; FIG. 3): tendency to diminish
- shortening of the latent M-response period ([4]; intact neuromuscular system): 89%
- shortening of the latent M-response period ([4]; regenerating nerve (and the muscle)): 59%
